{"source": "ChEMBL document CHEMBL1649287", "about": "“Postantibiotic effect of ceftaroline against gram-positive organisms” (2009)", "key": {"[1]": {"system": "Staphylococcus aureus", "experiment": "Antimicrobial activity against Staphylococcus aureus ATCC 29213 assessed as post antibiotic effect at 10 times MIC after 2 hr by plate counting method", "assay_type": "functional"}, "[2]": {"system": "Streptococcus pneumoniae", "experiment": "Antimicrobial activity against Streptococcus pneumoniae ATCC 6306 assessed as post antibiotic effect at 10 times MIC after 2 hr by plate counting method", "assay_type": "functional"}}}
{"compound": "CO/N=C(\\C(=O)N[C@@H]1C(=O)N2C(C(=O)O)=C(CSc3nc(=O)c(O)nn3C)CS[C@H]12)c1csc(N)n1", "note": "[CEFTRIAXONE]", "values": [{"measurement": "PAE", "setting": "[1]", "result": 2.3, "unit": "h"}, {"measurement": "PAE", "setting": "[2]", "result": 0.7, "unit": "h"}]}
